Measured values: patent US12264156B2, “Compounds and pharmaceutical compositions thereof for the treatment of diseases” (GALAPAGOS NV, priority 2018, dated 2025)

How the values were obtained:
[1] = test system: lung fibrosis induced by radiation; experiment: Radiation induced fibrosis mouse model; format: in vivo; conditions: 60 mg/kg p.o. b.i.d.
Description: Pneumonitis and lung fibrosis are the major radiation-induced complications following thoracic radiotherapy, which is one of the major treatment of lung and breast cancers, lymphomas and hematopoietic transplant conditioning. The objective of this model was to evaluate the effect of a compound of the invention in lung fibrosis induced by radiation in mice (Favaudon et al. 2014), in particular on lung functionality (Flexivent) and fibrosis marker (Collagen I).
7 weeks old (18-22 gr) female C57BL/6J mice from Charles River (Écully, France), batch number S1672) were maintained on 12 h light/dark cycle at 22° C. with ad libitum access to tap water and food. […]
Body weight was recorded once a week, and on D23, lung function measurement under anesthesia was realized by Flexivent (Devos et al. 2017) for all groups (6 successful measurement per group) before sacrifice.
Lungs were collected and fixed in 4% formaldehyde for 24 h before embedding in paraffin. […] The anti-collagen I antibody was detected and amplified by ImmPress kit (Vector Laboratories, 3, Accent Park, Bakewell Road, Orton Southgate, Peterborough, PE2 6XS, United Kingdom, Cat #MP-7401). The immunostained sections were then scanned (Nanozoomer, Hamamatsu) before quantification by image analysis (CaloPix software, TRIBVN Healthcare). Data were expressed as percentage collagen I area per area of lung tissue. […]

mouse CAIA model = experiment: Murine collagen-antibody induced arthritis model (CAIA); format: in vivo; conditions: 60 mg/kg p.o. b.i.d.
Method: ArthritoMabrm antibody cocktail for inducing arthritis and lipopolysaccharide (LPS) from Escherichia Coli serotype O55:B5 were purchased from MD Biosciences (OakdalMNnn., USA, Cat #CIA-MAB-50); PBS 1× (GIBCO, Cat #140190-086) was obtained from ThermoFisher Scientific, and Enbrel® (etanercept) was purchased from Chondrex (L'Isle d'Abeau, France, Cat #3771910).
Five to seven week old BALBc female mice were obtained from Janvier Labs (Le Genest-Saint-Isle, France). Mice were kept on a 12 h light/dark cycle. Temperature was maintained at 22° C., food and water were provided ad libitum.
The therapeutic effects of the compounds of the invention were tested in the mouse CAIA model (MD Biosciences 2008; Nandakumar et al. 2003). At day 1 (D1), mice were randomly divided into equal groups containing 10 mice. […] Bodyweight and clinical score of each mouse was assessed every day except the weekend until the end of the study. […] For histology readouts, right and left hind paws were individually collected in vials (25 mL minimum) filled with 4% buffered formaldehyde for a minimum of 24 h to a maximum of 4 days at RT.
Arthritis was scored according to the method of Khachigian 2006; Lin et al 2007 and Nishida et al. 2004 (Khachigian 2006; Lin et al. 2007; Nishida et al. 2004). […]

[2] = test system: IL-23 induced psoriatic-like epidermal hyperplasia; experiment: Murine model of psoriatic-like epidermal hyperplasia induced by intradermal injections of IL-23; format: in vivo, mouse; conditions: 10 mg/kg p.o. b.i.d.
Method: Mouse recombinant IL-23, carrier free (Cat #14-8231) is provided by e-Bioscience (Frankfurt, Germany).
Balb/c mice (female, 18-20 g body weight) were obtained from Janvier Labs (Le Genest-Saint-Isle, France). Mice are kept on a 12 h light/dark cycle. Temperature was maintained at 22° C., food and water are provided ad libitum.
The design of the study was adapted from Rizzo H L. et al. (Rizzo et al. 2011). On the first day (D1), the mice were shaved around the two ears. For 4 consecutive days (D1 to D4), the mice received a daily intradermal dose of mouse recombinant IL-23 (1 μg/20 μL in PBS/0.1% BSA) in the right pinna ear and 20 μL of PBS/0.1% BSA in the left pinna ear under anesthesia.
From D1 to D5, mice were dosed with test-compound or with vehicle, 1 h prior IL-23 injection.
The thickness of both ears was measured daily with an automatic caliper. Body weight was assessed at initiation and at sacrifice. On fifth day, 2 h after the last dosing, the mice were sacrificed. The pinnae of the ear were cut, excluding cartilage. The pinnae, placed in a vial containing 1 mL of RNAlater® solution.
There were 8 mice per group. The results were expressed as mean±SEM and statistical analysis was performed using one-way ANOVA followed by Dunnett's post-hoc test versus IL-23 vehicle groups.

SMILES: COc1cc(-c2cnc3cc(OCCN4CCOCC4)ccn23)cc2c1C(=O)N(CC(F)(F)F)CC2 [Cpd 88, 8-methoxy-6-[7-(2-morpholinoethoxy)imidazo [1,2-a]pyridin-3-yl]-2-(2,2,2-trifluoroethyl)-3,4-dihydroisoquinolin-1-one]
- ColI (collagen I) extent vs. vehicle group [1]: statistically significant reduction of ColI (collagen I) extent
- Area Under the Curve (AUC) of clinical score vs. vehicle group (mouse CAIA model): statistically significant reduction of Area Under the Curve (AUC) of clinical score
- ear thickness compared to IL-23 vehicle group [2]: statistically significant decrease of the ear thickness
